The values that follow come from patent publication US20240079083A1, “USING BIPARTITE NETWORKS TO DETERMINE INTERACTIONS BETWEEN ANALYTES AND CHEMICAL TREATMENTS” (UT-Battelle, LLC, priority 2022, published 2024).

The subject of experiment [1] is Aspergillus fumigatus. As to the kind of experiment: Direct route: production of specialized metabolites under exogenous treatments, 37° C. Type of experiment: cell-based. The source says: (§1) Several examples of a bipartite network framework of treatments and metabolomic outputs will now be described. Bipartite networks are built to quantify the relationship between metabolites and the sources triggering their production, such as various exogenous biomolecules or compounds. As discussed above, a bipartite network (or graph) is a collection of nodes connected by lines named edges. The nodes represent the entities or elements of a system, and the edges represent the interaction or relationship amongst the features. For example, in cell metabolism, a metabolic network represents the biochemical reactions amongst substrates that result in products. The nodes of the metabolic network represent the substrates, and the edges represent the metabolic reactions amongst the substrates. For example, this framework can assess the effect of exogenous compounds on the production of specialized microbial metabolites. The nodes can be classified into two types: the treatments and the specialized metabolites, resulting in a bipartite network. The edges represent the magnitude of up- or down-regulation of specialized metabolites caused by the treatments compared to a controlled case (measured by the magnitude of log2 fold change using processed spectral data from targeted LC-MS analysis).
The bipartite network provides an in-depth quantification and clear visual representation of a treatment's ability to trigger the production of various specialized metabolites. Two routes are provided to assess specialized metabolite production using the bipartite network formulation, as shown in FIG. 15. The first is the direct route 1502 to determine the biosynthesis of known and putative metabolites, whereas the second is the auxiliary route 1504 to assess the production of unknown analytes. In the direct route 1502, the network nodes include treatments that elucidate known and putative metabolites by a microbe. Network centrality measurements 1506 are used to rank the treatments and the specialized metabolites. […]

Experiment [2] concerns Aspergillus fumigatus. As to the kind of experiment: Auxiliary route: untargeted analytes under the treatments, 37° C. Type of experiment: cell-based. The source says:
(§2) The auxiliary route follows an untargeted metabolomic profiling of the treatments. […] In the direct route, a peak area cutoff of 5×10^5 was used to detect signals with significant peaks between a treatment and solvent control. Although their peak area cutoff of 5×10^5 eliminates most noise, it is a linear cutoff and leaves some residual noise in the analysis due to column creep. Therefore, the dataset for the auxiliary route can be curated from the experimental study using baseline correction preprocessing tools. Following the processes defined by “Dynamics of Metabolite Induction in Fungal Co-cultures by Metabolomics at Both Volatile and Non-volatile Levels”, Front. Microbiol., 5 Feb. 2018 Sec. Antimicrobials, Resistance and Chemotherapy, Azzollini et al., peaks can be picked using GridMass and aligned using RANSAC alignment or another suitable alignment tool. Peak data can then be matched to known profiles in KEGG and LipidMap.
(§3) Peak significance was determined upon FCROS scoring. Non-significant analytes were not included in the network. An interactive map of the network illustrating the details of each analyte (m/z ratio, retention times, p-values, etc.) can be generated.
Considering the analytes from the network at 37° C. shown in FIG. 14D, twelve significant analyte peaks with log2 fold change intensities greater than 1 were extracted from the processed data. All three CO treatments at 37° C. triggered no shared analytes. Nor did the two lipid treatments trigger a shared analyte. Ten of the twelve analytes with log2 fold change intensities greater than 1 or less than −1 are uniquely triggered by a single treatment (i.e., analytes with node degree 1), as shown in FIG. 14D. Of the twelve significant extracted analyte peaks, eleven were identified from database queries. Analytes identified by KEGG were putative metabolites, hellebrigenin 3-acetate (ID 10), fraxetin (ID 16), beta-cyclopiazonate (ID 70), phenylbutazone (ID 71), borrerine (ID 89), clofibrate (ID 110), alangimarine (IDs 163 and 164), and sulindac (IDs 168 and 169). LipidMaps identified 6′-hydroxysiphonaxanthin decenoate (ID 21). […] There are no connections in ID numbers between the 25° C. and 37° C. experiments.

Experiment [3] relates to Aspergillus fumigatus. As to the kind of experiment: Direct route: production of known and putative specialized metabolites under exogenous treatments, 25° C. (targeted LC-MS, bipartite network). The format is cell-based. To be noted: for broadcasting PageRank of the treatments: minimum-maximum normalized; for broadcasting PageRank of the treatments / node out-strength of the treatments (effect on triggering metabolite production): rank among treatments.
Description: as §1
The bipartite network provides an in-depth quantification and clear visual representation of a treatment's ability to trigger the production of various specialized metabolites. Two routes are provided to assess specialized metabolite production using the bipartite network formulation, as shown in FIG. 15. The first is the direct route 1502 to determine the biosynthesis of known and putative metabolites, whereas the second is the auxiliary route 1504 to assess the production of unknown analytes. In the direct route 1502, the network nodes include treatments that elucidate known and putative metabolites by a microbe. Network centrality measurements 1506 are used to rank the treatments and the specialized metabolites. Those measurements can be used to identify the most influential nodes in the bipartite network. […] The treatments can be ranked based on their capability to trigger metabolite production, and the metabolites can be classified based on their popularity in being activated by various treatments. In the auxiliary route, the bipartite networks are built using analyte peaks extracted from post-processed spectral data. Further, the systems and methods of the present disclosure analyze the edges and neighborhoods of nodes to distinguish unique analytes among the total pool.
The bipartite network framework was used in this example to reveal the effect of various chitooligosaccharides and lipid treatments on triggering the production of specialized metabolites in Aspergillus fumigatus. Various chitooligosaccharides and lipids were applied as exogenous treatments since they are common constituents found in most fungi. Moreover, it has been previously shown that lipids influence fungal metabolomics; however, the impacts of chitooligosaccharides have remained unknown. In contrast, chitooligosaccharides are reported to have antifungal activity, which might potentially influence the metabolomic profile in Aspergillus species. This example highlights the influence of temperature on the production of specialized metabolites by conducting the experiments at 25 and 37° C. Aspergillus fumigatus is generally examined at 25° C. to explore the extent of its metabolomic capabilities or its lifestyle as a soilborne saprotroph that recycles environmental carbon and nitrogen. However, the fungus is also an opportunistic human pathogen and is commonly examined at 37° C. for its ability to cause aspergillosis, a lung disease found in immunocompromised patients. […]

Experiment [4] has as its system Aspergillus fumigatus. The conditions noted are these: 37° C.; cited from earlier work.
The subject of experiment [5] is Aspergillus fumigatus. As to the kind of experiment: Auxiliary route: untargeted metabolomic profiling of the treatments, 25° C. (FCROS, bipartite network). Type of experiment: cell-based.
Description: as §2, §3
The untargeted extraction of statistically relevant peaks using the auxiliary route can yield a significant number of analytes for potential exploration. The edges and neighbors of the nodes in the network can be used to determine which analytes to be first considered for targeted exploration. Analytes of particular interest express both […] depending on the treatment considered. Additionally, analytes of extreme up- and down-regulation can be of interest along with the node degree values of the analytes. FIG. 13D illustrates significant peaks with log2 fold change greater than 1 or less than −1. The total number of interactions (edges in the network) found with the auxiliary route is considerably higher compared to the network in the direct route. […] At 25 C, analytes ID 26 and ID 105 were matched to fraxetin via the KEGG database query. […] Analyte ID 222 was matched to ICAS #18 from the LipidMap database. […] At the same time, no single highly produced analyte is triggered by all three chitooligosaccharides.

In the case of `CCCCCCCC/C=C\CCCCCCCC(=O)O` [oleic acid], the “effectiveness of treatment at triggering metabolite production (node strength and PageRank)” value (from here on “effectiveness of treatment”) in experiment [1] is on record as “poor at triggering the production of metabolites”. The “regulation of analyte 168” value in experiment [2] was “downregulated”. For the same compound, in experiment [3], the “number of metabolites triggered” value is recorded as “five”, the “number of unique metabolites triggered” value is recorded as “two” and the “node out-strength of the treatments (effect on triggering metabolite production)” value (“node out-strength of the treatments” for short) is “then oleic acid”. For the same compound, in experiment [3] (listed as Oleic acid), the “broadcasting PageRank of the treatments” value was “higher broadcasting PageRank value than CO5”. Also, the germination result in experiment [4] is “inducer of germination”.

As for `CC(=O)N[C@H]1[C@H](O[C@H]2[C@H](O)[C@@H](NC(C)=O)[C@H](O[C@H]3[C@H](O)[C@@H](NC(C)=O)[C@H](O[C@H]4[C@H](O)[C@@H](NC(C)=O)C(O)O[C@@H]4CO)O[C@@H]3CO)O[C@@H]2CO)O[C@H](CO)[C@@H](O[C@@H]2O[C@H](CO)[C@@H](O[C@@H]3O[C@H](CO)[C@@H](O[C@@H]4O[C@H](CO)[C@@H](O[C@@H]5O[C@H](CO)[C@@H](O)[C@H](O)[C@H]5NC(C)=O)[C@H](O)[C@H]4NC(C)=O)[C@H](O)[C@H]3NC(C)=O)[C@H](O)[C@H]2NC(C)=O)[C@@H]1O` (some centres unmarked) [CO8], the “regulation of analyte 163” value in experiment [2] is “upregulated”. In experiment [3], the “broadcasting PageRank of the treatments” value is listed as “followed by CO8” and the “node out-strength of the treatments” value is reported as “minor influence on inducing metabolite production”.

As for `CC(=O)N[C@H]1[C@H](O[C@H]2[C@H](O)[C@@H](NC(C)=O)C(O)O[C@@H]2CO)O[C@H](CO)[C@@H](O[C@@H]2O[C@H](CO)[C@@H](O[C@@H]3O[C@H](CO)[C@@H](O)[C@H](O)[C@H]3NC(C)=O)[C@H](O)[C@H]2NC(C)=O)[C@@H]1O` (some centres unmarked) [CO4], the “effectiveness of treatment” value in experiment [1] is reported as “poor at triggering the production of metabolites”. The “production of analyte 16” value in experiment [5] is listed as “significantly produced”. In experiment [2], the “regulation of analyte 163” value was “downregulated” and the “regulation of analyte 168” value was “downregulated”. In experiment [3], the “number of metabolites triggered” value was “six”, the “number of unique metabolites triggered” value is listed as “two”, the “broadcasting PageRank of the treatments” value is listed as “most effective treatment” and the “node out-strength of the treatments” value was “highest effect on triggering metabolite production”.

Regarding `CC(=O)N[C@H]1[C@H](O[C@H]2[C@H](O)[C@@H](NC(C)=O)[C@H](O[C@H]3[C@H](O)[C@@H](NC(C)=O)C(O)O[C@@H]3CO)O[C@@H]2CO)O[C@H](CO)[C@@H](O[C@@H]2O[C@H](CO)[C@@H](O[C@@H]3O[C@H](CO)[C@@H](O)[C@H](O)[C@H]3NC(C)=O)[C@H](O)[C@H]2NC(C)=O)[C@@H]1O` (some centres unmarked) [CO5], the “production of analyte 16” value in experiment [5] was “significantly produced”. In addition, the “regulation of fraxetin (analytes ID 26 and ID 105)” value in experiment [5] (log2 fold change greater than 1 or less than −1) was “upregulated”. Also, in experiment [2], the “regulation of analyte ID 90” value is “upregulated”. The “number of unique metabolites triggered” value in experiment [3] is “one”.

As for `CCCCCCCCCCCCCCCC(=O)O` [palmitic acid], in experiment [1], the “effectiveness of treatment” value was “most effective treatment on metabolite production”. Besides, the “regulation of ICAS #18 (analyte ID 222)” value in experiment [5] (with respect to the control) was “significantly down regulates”. For the same compound, in experiment [2], the “regulation of analyte 163” value was “upregulated”, the “regulation of analyte 168” value was “upregulated” and the “regulation of analyte ID 90” value is “upregulated”. Besides, in experiment [3], the “broadcasting PageRank of the treatments” value is “least broadcasting PageRank measure” and the “node out-strength of the treatments” value was “minor influence on inducing metabolite production”.
